Experimental data: ChEMBL document CHEMBL5649166, “RIP3 induces apoptosis independent of pronecrotic kinase activity” (Mol Cell, 2014)

Assays:
[1] = target: Protein kinase C eta type (Homo sapiens) (UniProt P24723); assay: Inhibition of human PKCeta using ERMRPRKRQGSVRRRV as substrate at 1 uM in presence of 32P-ATP by Hotspot assay relative to control; values are per cent of control
[2] = target: CDK9/cyclin T1 (Homo sapiens) (UniProt O60563+P50750); assay: Inhibition of human CDK9/cyclin T1 using KTFCGTPEYLAPEVRREPRILSEEEQEMFRDFDYIADWC as substrate at 1 uM in presence of 32P-ATP by Hotspot assay relative to control; values are per cent of control
[3] = target: MAP/microtubule affinity-regulating kinase 3 (Homo sapiens) (UniProt P27448); assay: Inhibition of human MARK3 using KKKVSRSGLYRSPSMPENLNRPR as substrate at 1 uM in presence of 32P-ATP by Hotspot assay relative to control; values are per cent of control
[4] = target: Casein kinase I isoform gamma-3 (Homo sapiens) (UniProt Q9Y6M4); assay: Inhibition of human CK1g3 using KRRRAL[pS]VASLPGL as substrate at 1 uM in presence of 32P-ATP by Hotspot assay relative to control; values are per cent of control
[5] = target: Death-associated protein kinase 2 (Homo sapiens) (UniProt Q9UIK4); assay: Inhibition of human DAPK2 using KKLNRTLSFAEPG as substrate at 1 uM in presence of 32P-ATP by Hotspot assay relative to control; values are per cent of control
[6] = target: T1, Activin receptor type-1 (Homo sapiens) (UniProt Q04771); assay: Inhibition of human ALK2/ACVR1 using casein as substrate at 1 uM in presence of 32P-ATP by Hotspot assay relative to control; values are per cent of control
T1 sequence (whole entry): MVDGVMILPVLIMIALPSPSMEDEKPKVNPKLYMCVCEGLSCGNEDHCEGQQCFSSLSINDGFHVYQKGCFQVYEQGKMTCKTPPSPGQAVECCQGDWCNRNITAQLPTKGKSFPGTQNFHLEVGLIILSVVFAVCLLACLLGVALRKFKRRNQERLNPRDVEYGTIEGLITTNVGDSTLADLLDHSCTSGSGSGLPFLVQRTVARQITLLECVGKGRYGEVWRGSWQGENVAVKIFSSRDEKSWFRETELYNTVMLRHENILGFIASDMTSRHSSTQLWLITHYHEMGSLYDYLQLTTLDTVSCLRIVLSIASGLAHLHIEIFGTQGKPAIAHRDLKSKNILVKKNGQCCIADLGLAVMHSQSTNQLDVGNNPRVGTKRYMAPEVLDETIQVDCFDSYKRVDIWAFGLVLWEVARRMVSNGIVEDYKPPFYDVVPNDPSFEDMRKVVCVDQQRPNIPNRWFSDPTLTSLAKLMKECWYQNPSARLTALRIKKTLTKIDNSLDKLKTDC

[7] = target: T2, 3-phosphoinositide-dependent protein kinase 1 (Homo sapiens) (UniProt O15530); assay: Inhibition of human PDK1/PDPK1 using KTFCGTPEYLAPEVRREPRILSEEEQEMFRDFDYIADWC as substrate at 1 uM in presence of 32P-ATP by Hotspot assay relative to control; values are per cent of control
T2 sequence (whole entry): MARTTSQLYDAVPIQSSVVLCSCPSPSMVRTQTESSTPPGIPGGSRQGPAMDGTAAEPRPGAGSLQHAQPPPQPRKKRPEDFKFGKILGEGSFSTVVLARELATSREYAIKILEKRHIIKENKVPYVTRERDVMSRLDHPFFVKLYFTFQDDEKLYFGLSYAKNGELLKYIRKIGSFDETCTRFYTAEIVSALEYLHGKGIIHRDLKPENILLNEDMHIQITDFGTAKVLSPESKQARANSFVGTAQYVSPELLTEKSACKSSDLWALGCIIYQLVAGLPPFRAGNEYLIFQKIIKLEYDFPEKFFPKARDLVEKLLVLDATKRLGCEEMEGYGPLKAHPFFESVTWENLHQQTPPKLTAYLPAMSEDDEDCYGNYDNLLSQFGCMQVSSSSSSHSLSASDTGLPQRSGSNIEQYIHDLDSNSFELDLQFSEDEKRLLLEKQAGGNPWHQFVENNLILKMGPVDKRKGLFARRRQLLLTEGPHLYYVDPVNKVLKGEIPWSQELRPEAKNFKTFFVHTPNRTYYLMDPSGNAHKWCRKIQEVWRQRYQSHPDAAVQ

[8] = target: T3, Serine/threonine-protein kinase DCLK2 (Homo sapiens) (UniProt Q8N568); assay: Inhibition of human DCAMKL2 using KKLNRTLSFAEPG as substrate at 1 uM in presence of 32P-ATP by Hotspot assay relative to control; values are per cent of control
T3 sequence (whole entry): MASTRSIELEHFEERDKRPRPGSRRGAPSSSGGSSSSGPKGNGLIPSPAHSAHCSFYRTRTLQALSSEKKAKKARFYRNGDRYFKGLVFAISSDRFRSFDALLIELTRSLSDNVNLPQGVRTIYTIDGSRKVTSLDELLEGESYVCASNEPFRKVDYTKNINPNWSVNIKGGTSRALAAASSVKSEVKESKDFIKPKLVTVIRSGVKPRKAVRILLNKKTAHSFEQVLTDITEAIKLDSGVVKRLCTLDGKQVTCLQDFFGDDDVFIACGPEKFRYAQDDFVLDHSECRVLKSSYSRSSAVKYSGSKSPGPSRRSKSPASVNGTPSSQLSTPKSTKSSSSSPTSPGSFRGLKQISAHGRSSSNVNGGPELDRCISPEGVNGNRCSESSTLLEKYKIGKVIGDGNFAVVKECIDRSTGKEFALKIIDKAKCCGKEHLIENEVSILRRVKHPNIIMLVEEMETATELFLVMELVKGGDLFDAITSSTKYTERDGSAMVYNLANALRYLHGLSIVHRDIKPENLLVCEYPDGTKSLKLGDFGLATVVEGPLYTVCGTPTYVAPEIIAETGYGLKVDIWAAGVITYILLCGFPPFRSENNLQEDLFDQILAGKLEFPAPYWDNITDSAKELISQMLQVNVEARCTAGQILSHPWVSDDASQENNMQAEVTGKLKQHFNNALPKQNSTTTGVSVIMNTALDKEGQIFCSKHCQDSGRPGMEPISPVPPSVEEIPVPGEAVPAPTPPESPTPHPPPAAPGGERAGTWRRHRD

Sequence of Death-associated protein kinase 2 (Homo sapiens) (Q9UIK4 whole entry, looked up): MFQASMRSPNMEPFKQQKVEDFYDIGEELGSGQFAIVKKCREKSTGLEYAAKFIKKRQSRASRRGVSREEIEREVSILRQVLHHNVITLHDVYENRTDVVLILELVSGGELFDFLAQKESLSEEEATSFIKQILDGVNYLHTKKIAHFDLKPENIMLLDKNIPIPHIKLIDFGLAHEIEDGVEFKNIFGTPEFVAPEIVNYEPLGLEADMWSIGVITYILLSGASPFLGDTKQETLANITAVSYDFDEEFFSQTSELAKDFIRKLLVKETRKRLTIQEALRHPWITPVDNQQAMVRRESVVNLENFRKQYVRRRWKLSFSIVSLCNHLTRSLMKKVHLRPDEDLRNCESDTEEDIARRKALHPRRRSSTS
Sequence of Casein kinase I isoform gamma-3 (Homo sapiens) (Q9Y6M4 whole entry, looked up, canonical isoform): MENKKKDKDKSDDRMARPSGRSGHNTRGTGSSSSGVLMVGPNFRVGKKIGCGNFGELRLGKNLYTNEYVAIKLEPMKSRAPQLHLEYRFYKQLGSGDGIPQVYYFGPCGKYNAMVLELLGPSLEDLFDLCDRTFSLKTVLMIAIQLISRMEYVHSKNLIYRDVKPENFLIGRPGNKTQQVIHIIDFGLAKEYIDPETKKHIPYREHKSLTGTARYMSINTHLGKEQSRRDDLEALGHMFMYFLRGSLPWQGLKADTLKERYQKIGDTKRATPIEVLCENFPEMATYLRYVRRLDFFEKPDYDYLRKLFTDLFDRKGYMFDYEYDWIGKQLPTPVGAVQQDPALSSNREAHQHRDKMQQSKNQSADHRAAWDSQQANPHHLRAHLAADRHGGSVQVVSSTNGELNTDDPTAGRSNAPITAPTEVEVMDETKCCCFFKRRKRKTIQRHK
Sequence of Protein kinase C eta type (Homo sapiens) (P24723 whole entry): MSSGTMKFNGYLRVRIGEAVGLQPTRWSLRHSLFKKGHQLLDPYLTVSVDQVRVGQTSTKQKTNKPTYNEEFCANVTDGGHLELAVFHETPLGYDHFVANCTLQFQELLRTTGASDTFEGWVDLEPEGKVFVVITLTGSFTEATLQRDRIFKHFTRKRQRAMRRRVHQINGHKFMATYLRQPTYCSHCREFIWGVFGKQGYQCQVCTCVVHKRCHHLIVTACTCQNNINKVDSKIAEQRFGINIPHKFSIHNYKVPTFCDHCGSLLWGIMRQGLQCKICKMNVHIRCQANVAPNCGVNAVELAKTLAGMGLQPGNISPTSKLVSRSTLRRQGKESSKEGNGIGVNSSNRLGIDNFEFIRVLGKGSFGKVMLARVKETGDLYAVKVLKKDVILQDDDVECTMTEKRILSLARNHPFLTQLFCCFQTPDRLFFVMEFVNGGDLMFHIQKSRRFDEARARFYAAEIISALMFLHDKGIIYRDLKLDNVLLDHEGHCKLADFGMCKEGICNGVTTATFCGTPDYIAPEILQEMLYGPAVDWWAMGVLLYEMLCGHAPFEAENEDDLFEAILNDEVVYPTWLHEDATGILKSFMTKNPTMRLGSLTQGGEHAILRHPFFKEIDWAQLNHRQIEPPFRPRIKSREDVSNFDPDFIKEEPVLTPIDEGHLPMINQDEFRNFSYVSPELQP
Sequence of MAP/microtubule affinity-regulating kinase 3 (Homo sapiens) (P27448 whole entry, looked up, canonical isoform): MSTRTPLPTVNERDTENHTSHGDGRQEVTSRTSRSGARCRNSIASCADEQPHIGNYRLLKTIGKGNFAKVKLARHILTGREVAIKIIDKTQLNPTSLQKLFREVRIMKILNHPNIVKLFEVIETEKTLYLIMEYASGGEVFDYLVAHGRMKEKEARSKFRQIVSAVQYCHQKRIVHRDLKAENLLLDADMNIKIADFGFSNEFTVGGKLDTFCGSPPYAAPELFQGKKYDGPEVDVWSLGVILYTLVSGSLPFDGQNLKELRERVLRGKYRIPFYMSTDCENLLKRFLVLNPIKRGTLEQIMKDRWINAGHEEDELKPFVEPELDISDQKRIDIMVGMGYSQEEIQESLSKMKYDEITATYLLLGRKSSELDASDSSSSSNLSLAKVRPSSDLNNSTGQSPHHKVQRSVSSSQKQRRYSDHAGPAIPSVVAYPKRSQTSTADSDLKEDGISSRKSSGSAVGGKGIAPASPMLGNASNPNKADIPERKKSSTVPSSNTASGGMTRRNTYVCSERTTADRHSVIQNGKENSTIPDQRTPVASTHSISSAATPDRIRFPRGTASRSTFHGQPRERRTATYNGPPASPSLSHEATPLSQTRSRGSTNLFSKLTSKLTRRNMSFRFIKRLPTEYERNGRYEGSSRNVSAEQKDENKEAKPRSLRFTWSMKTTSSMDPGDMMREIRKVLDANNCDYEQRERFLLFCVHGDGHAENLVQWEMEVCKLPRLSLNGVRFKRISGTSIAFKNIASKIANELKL

| SMILES | residual activity [1] | residual activity [2] | residual activity [3] | residual activity [4] | residual activity [5] | residual activity [6] | residual activity [7] | residual activity [8] |
| --- | --- | --- | --- | --- | --- | --- | --- | --- |
| CC(C)S(=O)(=O)c1ccc2nccc(Nc3ccc4scnc4c3)c2c1 | 88% | 96.6% | 106% | 103% | 104% | 102% | 98.6% | 99.4% |
| Cc1cc(-c2cnc(N)c3c(-c4ccc5scnc5c4)csc23)n(C)n1 | 73.6% | 96.2% | 98.2% | 88.2% | 82.4% | 101% | 101% | 95.2% |
| CNC(=O)c1ccc2c(c1)ncn2-c1ccc(CC(=O)OC(C)(C)C)cc1 | 92.5% | 91.3% | 108% | 97.5% | 96.3% | 80.4% | 100% | 98.6% |
